Source: patent US9776972B2, “Pyrazole derivatives as arginine methyltransferase inhibitors and uses thereof” (priority 2013, dated 2017)
Structures can show the parent of a compound that is named as a salt. Where two headings read alike, the source gives them in different places.

Key:
human PRMT8 = human PRMT8 (Homo sapiens, UniProt Q9NR22); test: PRMT8 Biochemical Assay (3H-SAM Flashplate, peptide substrate)
Source text: S-adenosylmethionine (SAM), S-adenosylhomocysteine (SAH), bicine, Tween20, dimethylsulfoxide (DMSO), bovine skin gelatin (BSG), isopropyl-β-D-thiogalactopyranoside (IPTG), and Tris(2-carboxyethyl)phosphine hydrochloride solution (TCEP) were purchased from Sigma-Aldrich at the highest level of purity possible. ^3H-SAM was purchase from American Radiolabeled Chemicals with a specific activity of 80 Ci/mmol. 384-well streptavidin Flashplates were purchased from PerkinElmer.
Peptide representative of human histone H4 residues 31-45 was synthesized with an N-terminal linker-affinity tag motif and a C-terminal amide cap by 21st Century Biochemicals.
E. coli (BL21(DE3) Gold, Stratagene) made competent by the CaCl2 method were transformed with the PRMT8 construct and ampicillin selection. Protein over-expression was accomplished by growing the PRMT8 expressing E. coli clone and inducing expression with 0.3 mM IPTG at 16° C. The culture was grown for 12 hours, harvested by centrifugation, and stored at −80° C. for purification.
GST-tagged PRMT8 was eluted with 50 mM Tris, 2 mM glutathione, pH 7.8. Pooled fractions were cleaved by thrombin (10 U) and dialysed in buffer A. GST was removed by reloading the cleaved protein sample onto glutathione sepharose column and PRMT8 was collected in the flow-through fractions. PRMT8 was purified further by ceramic hydroxyapatite chromatography. The column was washed with 50 mM phosphate buffer, 100 mM NaCl, 5% glycerol, 5 mM β-mercaptoethanol, pH 7.8 and PRMT8 was eluted by 100 mM phosphate in the same buffer. Protein was concentrated and buffer was exchanged to 50 mM Tris, 300 mM NaCl, 10% glycerol, 5 mM β-mercaptoethanol, pH 7.8 by ultrafiltration.
General Procedure for PRMT8 Enzyme Assays on Peptide Substrates.
The assays were all performed in a buffer consisting of 20 mM Bicine (pH=7.6), 1 mM TCEP, 0.005% BSG, and 0.002% Tween 20, prepared on the day of use. […] DMSO (1 ul) was added to Columns 11, 12, 23, 24, rows A-H for the maximum signal control and 1 ul of SAH, a known product and inhibitor of PRMT8, was added to columns 11, 12, 23, 24, rows I-P for the minimum signal control. A cocktail (40 ul) containing the PRMT8 enzyme was added by Multidrop Combi (Thermo-Fisher). The compounds were allowed to incubate with PRMT8 for 30 min at room temperature, then a cocktail (10 ul) containing ^3H-SAM and peptide was added to initiate the reaction (final volume=51 ul). […] The assays were stopped by the addition of non-radiolabeled SAM (10 ul) to a final concentration of 400 uM, which dilutes the ^3H-SAM to a level where its incorporation into the peptide substrate is no longer detectable. 50 ul of the reaction in the 384-well polypropylene plate was then transferred to a 384-well Flashplate and the biotinylated peptides were allowed to bind to the streptavidin surface for at least 1 hour before being washed once with 0.1% Tween20 in a Biotek ELx405 plate washer. The plates were then read in a PerkinElmer TopCount plate reader to measure the quantity of ^3H-labeled peptide bound to the Flashplate surface, measured as disintegrations per minute (dpm) or alternatively, referred to as counts per minute (cpm).
Where dpm=disintegrations per minute, cmpd=signal in assay well, and min and max are the respective minimum and maximum signal controls.
Where top and bottom are the normally allowed to float, but may be fixed at 100 or 0 respectively in a 3-parameter fit. The Hill Coefficient normally allowed to float but may also be fixed at 1 in a 3-parameter fit. Y is the % inhibition and X is the compound concentration.

[1] = test system: mono-methyl arginine in RKO cells; test: RKO Methylation Assay, In Cell Western (ICW) for mono-methyl arginine and DNA content; format: cell-based; conditions: Homo sapiens, RKO, 72 h
How it was run: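 RKO cells treated with compound for 72 hours at 37 °C, then methanol-fixed and stained overnight at 4 °C with anti-mono-methyl arginine antibody, plus DRAQ5 for DNA. Signal ratio from 700 and 800 nm infrared scans normalized to DMSO (minimum) and 20 μM reference compound (maximum); EC30 from triplicate curves.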

[2] = single experiment or average of multiple experiments
[3] = read-out: EC30 (In Cell Western data, Numerical, μM)
[4] = RKO cells, 72 hours, mono-methyl arginine, percent activation, single experiment or average of multiple experiments, read-out: EC30 (In Cell Western data, Numerical)
[5] = RKO cells, 72 hours, mono-methyl arginine, percent activation, class symbols, read-out: EC30 (In Cell Western data)
[6] = read-out: EC30 (In Cell Western data)

human PRMT8, sequence (Q9NR22 whole entry): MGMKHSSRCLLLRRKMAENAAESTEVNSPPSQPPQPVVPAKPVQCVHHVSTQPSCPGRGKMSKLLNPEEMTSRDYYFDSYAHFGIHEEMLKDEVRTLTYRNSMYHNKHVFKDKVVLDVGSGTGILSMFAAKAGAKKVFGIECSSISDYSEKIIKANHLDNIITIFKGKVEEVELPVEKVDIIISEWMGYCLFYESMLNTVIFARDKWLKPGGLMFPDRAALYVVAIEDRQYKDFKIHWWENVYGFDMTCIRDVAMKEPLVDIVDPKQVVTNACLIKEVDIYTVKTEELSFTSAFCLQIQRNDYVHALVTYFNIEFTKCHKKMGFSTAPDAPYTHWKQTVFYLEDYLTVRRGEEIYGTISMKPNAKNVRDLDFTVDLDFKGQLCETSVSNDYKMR

Row | Structure (SMILES) | IC50 (human PRMT8; [2]) [nM] | IC50 (human PRMT8) [nM] | EC30 [1, 3] [µM] | EC30 [1, 4] [µM] | EC30 [1, 5] [µM] | EC30 [1, 6] [µM]
1 | CN(CCN)Cc1c[nH]nc1-c1ccc(Cl)cc1F [Compound 132] | 365 | – | 2.4 | – | – | –
2 | CC(C)Oc1ccc(-c2n[nH]cc2CN(C)CCN)cc1F [Compound 97] | 89 | – | 0.184 | – | – | –
3 | COCCn1ncc(CN(C)CCN)c1-c1ccc(F)cc1 [Compound 6] | – | – | – | > 20 | – | –
4 | CNCCN(C)Cc1c[nH]nc1-c1ccc(OC2CCOCC2)c(Cl)c1 [Compound 292] | 8.52 | < 100 | – | 0.098 | < 3 | –
5 | CNCCN(C)Cc1c[nH]nc1-c1ccc(NC(C)C)cc1 [Compound 295] | 33.7 | < 100 | – | 0.116 | < 3 | –
6 | CNCCN(C)Cc1c[nH]nc1-c1ccc(Oc2ccncn2)cc1 [Compound 312] | 90.9 | < 100 | – | 0.824 | < 3 | –
7 | CN(CCN)Cc1c[nH]nc1-c1ccc(C2CCOCC2)cc1 [Compound 98] | 156 | – | – | 2.85 | – | –
8 | CN(CCN)Cc1n[nH]cc1-c1ccc(Cl)cc1 [Compound 102] | 311 | – | – | 2.32 | – | –
9 | CNCCN(C)Cc1c[nH]nc1-c1ccc(OCC2CC2)cc1 [Compound 288] | 14.2 | < 100 | – | 0.076 | < 3 | –
10 | CC[C@@H](C)Oc1ccc(-c2n[nH]cc2CN(C)CCNC)cc1 [Compound 308] | 14.1 | < 100 | – | 0.065 | < 3 | –
11 | CNCCN(C)Cc1c[nH]nc1-c1ccc(OC(COC)C(C)C)cc1 (centres unmarked) [Compound 311] | 50.9 | < 100 | – | 0.227 | < 3 | –
12 | CNCCN(C)Cc1c[nH]nc1-c1ccc(OCC2CC2)c(F)c1 [Compound 298] | 16.3 | < 100 | – | 0.104 | < 3 | –
13 | CNCCN(C)Cc1c[nH]nc1-c1ccc(Oc2ccccc2)c(F)c1 [Compound 297] | 6.68 | < 100 | – | 0.08 | < 3 | –
14 | CNCCN(C)Cc1c[nH]nc1-c1ccc(N(C)C(C)C)cc1 [Compound 300] | 64.7 | < 100 | – | 0.611 | < 3 | –
15 | CCN(CC)C(=O)c1ccc(-c2n[nH]cc2CN(C)CCN)cc1 [Compound 143] | 1750 | – | – | > 20 | – | –
16 | CNCCN(C)Cc1c[nH]nc1-c1ccc(OCC2CCOCC2)cc1 [Compound 284] | 90.2 | < 100 | – | 0.856 | < 3 | –
17 | CC(C)c1ccc(-c2c[nH]nc2CN(C)CCN)cc1 [Compound 101] | 570 | – | 5.99 | – | – | –
18 | CNCCN(C)Cc1c[nH]nc1-c1ccc(OCC(C)C)cc1 [Compound 306] | 18.5 | < 100 | – | 0.1 | < 3 | –
19 | CNCCN(C)Cc1c[nH]nc1-c1ccc(NCC(C)C)cc1 [Compound 296] | 57.6 | < 100 | – | 0.478 | < 3 | –
20 | Cc1cc(C#N)ccc1-c1n[nH]cc1CN(C)CCN [Compound 110] | 540 | – | – | – | – | –
21 | COc1ccc(-c2n[nH]cc2CN(C)CCN)c(F)c1 [Compound 107] | 912 | – | – | – | – | –
22 | CNCCN(C)Cc1c[nH]nc1-c1ccc(OC2CCOCC2)c(F)c1 [Compound 291] | 25.4 | < 100 | 0.154 | – | – | < 3
23 | CCC(CC)Oc1ccc(-c2n[nH]cc2CN(C)CCNC)cc1 [Compound 290] | 10.6 | < 100 | – | 0.021 | < 3 | –
24 | CNCCN(C)Cc1c[nH]nc1-c1ccc(OC2CC2)c(F)c1 [Compound 301] | 23.5 | < 100 | – | 0.128 | < 3 | –
25 | CNCCN(C)Cc1cnn(C)c1-c1ccc(OC(C)C)cc1 [Compound 244, hydrochloride] | – | – | 0.142 | – | – | < 3

Continued, in another order:

Row | IC50 (human PRMT8; [2]) [nM] | IC50 (human PRMT8) [nM] | Structure (SMILES) | EC30 [1, 3] [µM] | EC30 [1, 4] [µM] | EC30 [1, 5] [µM] | EC30 [1, 6] [µM]
26 | 2200 | – | CN(CCN)Cc1c[nH]nc1-c1ccc(F)cc1F [Compound 99] | – | 11.8 | – | –
27 | 2080 | – | COc1ccccc1-c1n[nH]cc1CN(C)CCN [Compound 109] | – | – | – | –
28 | 990 | – | Cc1c(F)cccc1-c1n[nH]cc1CN(C)CCN [Compound 129] | – | 7.38 | – | –
29 | 232 | – | Cc1ccc(-c2n[nH]cc2CN(C)CCN)cc1Cl [Compound 126] | – | 1.23 | – | –
30 | 136 | – | CN(CCN)Cc1c[nH]nc1-c1ccc(Cl)c(F)c1 [Compound 118] | – | 0.314 | – | –
31 | 1100 | – | CC(O)c1ccc(-c2n[nH]cc2CN(C)CCN)cc1 (centres unmarked) [Compound 115] | – | – | – | –
32 | 532 | – | CN(CCN)Cc1c[nH]nc1-c1cccc(Cl)c1F [Compound 123] | – | 2.96 | – | –
33 | 124 | – | CN(CCN)Cc1c[nH]nc1-c1ccc(C2CC2)cc1 [Compound 116] | – | 1.41 | – | –
34 | 305 | – | CN(CCN)Cc1c[nH]nc1-c1ccc(C(F)(F)F)c(F)c1 [Compound 141] | – | 0.583 | – | –
35 | 548 | – | CN(CCN)Cc1c[nH]nc1-c1cccc(Cl)c1 [Compound 122] | – | 3.48 | – | –
36 | 656 | – | CN(CCN)Cc1c[nH]nc1-c1cc(Cl)cc(Cl)c1 [Compound 137] | – | 4.18 | – | –
37 | 142 | – | Cc1cc(Cl)ccc1-c1n[nH]cc1CN(C)CCN [Compound 133] | – | 2.91 | – | –
38 | 548 | – | COc1cc(Cl)cc(-c2n[nH]cc2CN(C)CCN)c1 [Compound 127] | – | 7.01 | – | –
39 | 335 | – | CC(=O)c1cccc(-c2n[nH]cc2CN(C)CCN)c1 [Compound 112] | – | – | – | –
40 | 1000 | – | Cc1ccc(-c2n[nH]cc2CN(C)CCN)c(F)c1 [Compound 108] | – | – | – | –
41 | 799 | – | CN(CCN)Cc1c[nH]nc1-c1cc(F)cc(F)c1 [Compound 111] | – | – | – | –
